Results: BindingDB's records for doi:10.1016/j.bioorg.2014.07.012 (Kurukshetra University, 2014)

Key:
[1] = molecular target: Cathepsin B (Capra hircus, UniProt H9B8T9); experiment: Enzymatic activity assay; settings: pH 6; 37 °C
Protocol: (§1) Enzyme was equilibrated in 0.1 M phosphate buffer, pH 6.0 at 37 °C. All compounds were prepared in DMSO. Various concentrations of compounds were added in the reaction mixture separately. The reactions were incubated for 30 min and the activity was estimated by the usual enzyme assay at pH 6.0 using a-N-benzoyl-D,L-arginine-2-naphthylamide (BANA) as substrate.

[2] = molecular target: T1, Cathepsin H (Capra hircus, UniProt A0A060INS8); experiment: Enzymatic activity assay; settings: pH 6; 37 °C
T1 sequence (A0A060INS8 whole entry): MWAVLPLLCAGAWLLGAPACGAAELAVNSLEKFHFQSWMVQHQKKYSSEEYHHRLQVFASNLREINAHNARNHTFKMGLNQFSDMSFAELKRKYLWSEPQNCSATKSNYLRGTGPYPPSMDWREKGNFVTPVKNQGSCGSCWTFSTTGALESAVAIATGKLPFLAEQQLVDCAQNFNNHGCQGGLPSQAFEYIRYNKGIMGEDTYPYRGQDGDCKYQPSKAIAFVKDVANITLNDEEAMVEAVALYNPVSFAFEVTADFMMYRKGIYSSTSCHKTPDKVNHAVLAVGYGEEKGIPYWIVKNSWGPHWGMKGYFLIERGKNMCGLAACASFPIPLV
Protocol: as §1

Row | Ki [1] [nM] | Ki [2] [nM] | SMILES
1 | 775 | 1890 | O=C(c1ccccc1)N1N=C(c2ccccc2)CC1c1ccccc1Cl (stereo not given) [N-benzoyl-5-(-2'-chlorophenyl)-3-phenylpyrazoline (2b)]
2 | 1.1 | 51.9 | O=CN1N=C(c2ccccc2)CC1c1cccc([N+](=O)[O-])c1 (stereo not given) [N-formyl-5-(-3'-nitrophenyl)-3-phenylpyrazoline (1i)]
3 | 18 | 135 | O=CN1N=C(c2ccccc2)CC1c1ccccc1Cl (stereo not given) [N-formyl-5-(-2'-chlorophenyl)-3-phenylpyrazoline (1b)]
4 | 1150 | 3200 | O=C(c1ccccc1)N1N=C(c2ccccc2)CC1c1ccccc1 (stereo not given) [N-benzoyl-3,5-diphenylpyrazoline (2a)]
5 | 572 | 1440 | O=C(c1ccccc1)N1N=C(c2ccccc2)CC1c1ccccc1[N+](=O)[O-] (stereo not given) [N-benzoyl-5-(-2'-nitrophenyl)-3-phenylpyrazoline (2h)]
6 | 14.1 | 96.3 | O=CN1N=C(c2ccccc2)CC1c1ccccc1[N+](=O)[O-] (stereo not given) [N-formyl-5-(-2'-nitrophenyl)-3-phenylpyrazoline (1h)]
7 | 677 | 1810 | O=C(c1ccccc1)N1N=C(c2ccccc2)CC1c1cccc(Cl)c1 (stereo not given) [N-benzoyl-5-(-3'-chlorophenyl)-3-phenylpyrazoline (2c)]
8 | 195 | 980 | O=C(c1ccccc1)N1N=C(c2ccccc2)CC1c1cccc([N+](=O)[O-])c1 (stereo not given) [N-benzoyl-5-(-3'-nitrophenyl)-3-phenylpyrazoline (2i)]
9 | 66.8 | 387 | COc1ccccc1C1CC(c2ccccc2)=NN1C=O (stereo not given) [N-formyl-5-(-2'-methoxyphenyl)-3-phenylpyrazoline (1e)]
10 | 4900 | 9650 | COc1ccccc1C1CC(c2ccccc2)=NN1C(=O)c1ccccc1 (stereo not given) [N-benzoyl-5-(-2'-methoxyphenyl)-3-phenylpyrazoline (2e)]
11 | 21.1 | 137 | O=CN1N=C(c2ccccc2)CC1c1ccc(Cl)cc1 (stereo not given) [N-formyl-5-(-4'-chlorophenyl)-3-phenylpyrazoline (1d)]
12 | 925 | 3010 | O=C(c1ccccc1)N1N=C(c2ccccc2)CC1c1ccc(Cl)cc1 (stereo not given) [N-benzoyl-5-(-4'-chlorophenyl)-3-phenylpyrazoline (2d)]
13 | 44.8 | 221 | COc1ccc(C2CC(c3ccccc3)=NN2C=O)cc1 (stereo not given) [N-formyl-5-(-4'-methoxyphenyl)-3-phenylpyrazoline (1g)]
14 | 287 | 1270 | O=C(c1ccccc1)N1N=C(c2ccccc2)CC1c1ccc([N+](=O)[O-])cc1 (stereo not given) [N-benzoyl-5-(-4'-nitrophenyl)-3-phenylpyrazoline (2j)]
15 | 45.5 | 272 | COc1cccc(C2CC(c3ccccc3)=NN2C=O)c1 (stereo not given) [N-formyl-5-(-3'-methoxyphenyl)-3-phenylpyrazoline (1f)]
16 | 1590 | 5030 | COc1cccc(C2CC(c3ccccc3)=NN2C(=O)c2ccccc2)c1 (stereo not given) [N-benzoyl-5-(-3'-methoxyphenyl)-3-phenylpyrazoline (2f)]
17 | 14.6 | 130 | O=CN1N=C(c2ccccc2)CC1c1cccc(Cl)c1 (stereo not given) [N-formyl-5-(-3'-chlorophenyl)-3-phenylpyrazoline (1c)]
18 | 1280 | 4100 | COc1ccc(C2CC(c3ccccc3)=NN2C(=O)c2ccccc2)cc1 (stereo not given) [N-benzoyl-5-(-4'-methoxyphenyl)-3-phenylpyrazoline (2g)]
19 | 11.3 | 58 | O=CN1N=C(c2ccccc2)CC1c1ccc([N+](=O)[O-])cc1 (stereo not given) [N-formyl-5-(-4'-nitrophenyl)-3-phenylpyrazoline (1j)]
20 | 22.7 | 174 | O=CN1N=C(c2ccccc2)CC1c1ccccc1 (stereo not given) [N-formyl-3,5-diphenylpyrazoline (1a)]
